Test results published in ChEMBL document CHEMBL2406996, “Bioactive ent-kaurane diterpenoids from Isodon rosthornii” (J Nat Prod, 2013).
Residues, ends and D or L forms follow the SMILES beside them. *: point of attachment. Cbz = O=C(OCc1ccccc1)*

Assays:
SW480 = experiment: Cytotoxicity against human SW480 cells after 48 hrs by MTT assay; type: functional, cell-based; details: SW480, 48 h
RAW264.7 [1] = experiment: Cytotoxicity against mouse RAW264.7 cells after 18 hrs by MTS assay; type: cell-based; details: raw264.7, 18 h
A549 = experiment: Cytotoxicity against human A549 cells after 48 hrs by MTT assay; type: functional, cell-based; details: A549, 48 h
MCF7 = experiment: Cytotoxicity against human MCF7 cells after 48 hrs by MTT assay; type: functional, cell-based; details: MCF7, 48 h
HL-60 = experiment: Cytotoxicity against human HL60 cells after 48 hrs by MTT assay; type: functional, cell-based; details: HL-60, 48 h
SMMC-7721 = experiment: Cytotoxicity against human SMMC7721 cells after 48 hrs by MTT assay; type: functional, cell-based; details: SMMC-7721, 48 h
RAW264.7 [2] = experiment: Antiinflammatory activity in mouse RAW264.7 cells assessed as inhibition of LPS-induced nitric oxide production after 18 hrs by Griess method; type: functional, cell-based; details: RAW264.7, 18 h

Compound | IC50 (RAW264.7 [2]) [µM] | IC50 (SW480) [µM] | Activity (RAW264.7 [1]) | IC50 (A549) [µM] | IC50 (MCF7) [µM] | IC50 (HL-60) [µM] | IC50 (SMMC-7721) [µM]
C=C1[C@@H](O)[C@]23[C@H](O)[C@H]1CC[C@H]2[C@@]12C(OC)O[C@]3(O)[C@@H](O)[C@@H]1C(C)(C)CC[C@@H]2O (stereo partly specified) | > 25 | > 10 | Non-toxic | > 10 | > 10 | 5.3 | > 10
C=C1C(=O)[C@]23C[C@H]1CC=C2[C@@]12CO[C@@]3(O)[C@@H](O)[C@@H]1C(C)(C)CC[C@@H]2O | 2 | 3.4 | Non-toxic | 4.6 | 3.3 | 8.8 | 3.5
C=C1C(=O)[C@]23[C@H](O)[C@H]1CC[C@H]2[C@@]12CO[C@]3(O)[C@@H](O)[C@@H]1C(C)(C)CC[C@@H]2O [ORIDONIN] | 5.2 | > 10 | Non-toxic | > 10 | > 10 | 2.5 | > 10
C=C1C(=O)[C@@]23[C@@H]4OC(C)(C)O[C@@]25OC[C@]2(CCCC(C)(C)[C@H]2[C@@H]5O)[C@@H]3[C@@H](O)C[C@@H]14 | 1.1 | 2 | Non-toxic | 3.4 | 1.8 | 1.5 | 2.6
C[C@@H]1[C@@H]2C[C@H](O)[C@H]3[C@]45CCCC(C)(C)[C@H]4[C@H](O)[C@](O)(OC5)[C@@]3([C@@H]1O)[C@@H]2O | > 25 | > 10 | Non-toxic | > 10 | > 10 | > 10 | > 10
C=C1C(=O)[C@]23[C@H](O)[C@H]1C[C@@H](O)[C@H]2[C@]12CCCC(C)(C)[C@H]1[C@H](O)[C@@]3(O)OC2 | 1.7 | 2.5 | Non-toxic | 8.6 | 5.1 | 3.5 | 4.5
C=C1C(=O)[C@]23[C@H](O)[C@H]1CC[C@H]2[C@@]12[C@@H](OCCCC)O[C@@]3(O)[C@@H](O)[C@@H]1C(C)(C)CC[C@@H]2O (mixture of isomers) | 1.5 | 2.8 | Non-toxic | 3.9 | 2.6 | 1.2 | 3.2
CC(=O)O[C@H]1C(=O)[C@@]2(C)[C@H]([C@H](OC(=O)c3ccccc3)[C@]3(O)C[C@H](OC(=O)[C@H](O)[C@@H](NC(=O)c4ccccc4)c4ccccc4)C(C)=C1C3(C)C)[C@]1(OC(C)=O)CO[C@@H]1C[C@@H]2O [PACLITAXEL] | – | 0.04 | – | – | < 0.008 | < 0.008 | < 0.008
CC(C)C[C@@H](C=O)NC(=O)[C@H](CC(C)C)NC(=O)[C@H](CC(C)C)NC(=O)OCc1ccccc1 [MG-132] (Cbz-Leu-Leu-Leu-aldehyde) | 0.1 | – | Non-toxic | – | – | – | –
C=C1C(=O)[C@]23C[C@H]1CC[C@H]2[C@@]12CO[C@]3(O)[C@@H](O)[C@@H]1C(C)(C)CC[C@@H]2O | 3.4 | 3.2 | Non-toxic | 5.6 | 4.2 | 7.9 | 5.9
C=C1C(=O)[C@]23[C@H](OC(C)=O)[C@H]1C[C@H](OC(C)=O)[C@H]2[C@]12CCCC(C)(C)[C@H]1[C@H](O)[C@]3(O)OC2 | 6.3 | 3.2 | Non-toxic | > 10 | > 10 | 4.6 | > 10
C=C1[C@@H](O)[C@]23[C@H](O)[C@H]1CC[C@H]2[C@@]12C(=O)O[C@]3(O)[C@@H](O)[C@@H]1C(C)(C)CC[C@@H]2O | 6.1 | – | Non-toxic | – | – | – | –
C=C1C(=O)[C@]23[C@H](O)[C@H]1CC[C@H]2[C@@]12[C@H](OCC)O[C@@]3(O)[C@@H](O)[C@@H]1C(C)(C)CC[C@@H]2O (relative stereo) | 3.9 | 7.8 | Non-toxic | > 10 | 8.4 | 5.9 | > 10
C[C@@H]1[C@@H]2CC[C@H]3[C@]45CCCC(C)(C)[C@H]4[C@H](O)[C@](O)(OC5=O)[C@@]3([C@@H]1O)[C@@H]2O | > 25 | > 10 | Non-toxic | > 10 | > 10 | > 10 | > 10
C=C1[C@@H](O)[C@@]23C(=CC[C@@H]1[C@H]2O)[C@@]12CO[C@@]3(O)[C@@H](O)[C@@H]1C(C)(C)CC[C@@H]2O | > 25 | > 10 | Non-toxic | > 10 | > 10 | > 10 | > 10

Now from value to molecule, other results behind:

IC50 (RAW264.7 [2]) [µM] | Compound | IC50 (SW480) [µM] | Activity (RAW264.7 [1]) | IC50 (A549) [µM] | IC50 (MCF7) [µM] | IC50 (HL-60) [µM] | IC50 (SMMC-7721) [µM]
1.9 | C=C1C(=O)[C@]23[C@H](O)[C@H]1CC[C@H]2[C@@]12CO[C@@]3(O)[C@@H](O)[C@@H]1C(C)(C)CC[C@@H]2OC(C)=O [LASIOKAURIN] | 2.4 | Non-toxic | 6.7 | 2.5 | 1.8 | 2.7
> 25 | C=C1[C@H]2CC3=C4[C@](C2)(C(=O)O[C@H]2CCC(C)(C)[C@@H]([C@@H](O)O3)[C@]42C=O)[C@@H]1OC(C)=O | > 10 | Non-toxic | > 10 | > 10 | > 10 | > 10
2 | C=C1[C@H]2C[C@@H]3OC(=O)[C@@H]4C(C)(C)CC[C@@H]5OC(=O)[C@](C2)([C@@H]1O)[C@@H]3[C@]54C=O | > 10 | Non-toxic | > 10 | > 10 | 6.1 | > 10
2.3 | C=C1C(=O)[C@]23[C@H](O)[C@H]1CC[C@H]2[C@@]12C(OC)O[C@@]3(O)[C@@H](O)[C@@H]1C(C)(C)CC[C@H]2O (stereo partly specified) [RABDOTERNIN E] | 4.1 | Non-toxic | > 10 | > 10 | 2.6 | > 10
> 25 | C=C1[C@H]2CC[C@@H]3[C@](C2)(C(=O)O[C@@H]2CCC(C)(C)[C@H]4[C@H](O)O[C@@H](OC)[C@@]432)[C@@H]1OC(C)=O | > 10 | Non-toxic | > 10 | > 10 | > 10 | > 10
> 25 | C=C1C(=O)[C@]23[C@H](O)[C@H]1CC[C@H]2[C@@]12[C@@H](OC)O[C@]3(O)[C@@H](O)[C@@H]1C(C)(C)CC[C@@H]2O | 9.4 | Non-toxic | > 10 | > 10 | 7 | > 10
1.5 | C=C1[C@H]2C[C@H](O)[C@@H]3[C@](C2)(C(=O)O[C@@H]2CCC(C)(C)[C@H]4[C@H](O)O[C@H](OC)[C@@]432)[C@@H]1OC(C)=O (relative stereo) | 3.3 | Non-toxic | > 10 | 3.5 | 4.3 | > 10
